According to patent publication US9586951B2 (FUJIFILM Corporation, priority 2013, dated 2017):

Target: T1, ATM (Homo sapiens, UniProt Q13315)
T1 construct: detecting phosphorylation of Chk2 in a human non-small cell lung cancer cell line NCI-H460 (ATCC company); host or cells: NCI-H460 human non-small cell lung cancer cells
Assay: ATM inhibition test (phosphorylation of Chk2 generated by ionizing radiation, AlphaScreen SureFire)
Format: cell-based
Conditions: phosphorylated Chk2 in NCI-H460 cells, ionizing radiation 8Gy, 1 hour after test compound treatment; read-out: ATM inhibitory activity
Experimental: ATM inhibitory effects of a test compound were measured by detecting phosphorylation of Chk2 in a human non-small cell lung cancer cell line NCI-H460 (ATCC company). The level of phosphorylated Chk2 generated by an ionizing radiation was measured using AlphaScreen SureFire (TGR Biosciences).
The cells were seeded by 40000 cells per well in 96-well CellBIND® plates (Corning International Inc.), and incubated at 37° C. overnight in 5% CO2. […] 1 hour after a test compound treatment, half of the plates were irradiated with ionizing radiation 8Gy (Faxitron Bioptics, LLC, RX-650 type). The plates irradiated with ionizing radiation and the plates not being irradiated with ionizing radiation were incubated at 37° C. for 1 hour in 5% CO2. […] Subsequent operations were performed according to the instruction book of AlphaScreen SureFire. […] The inhibition ratio was calculated by the following equation. Inhibition ratio (%)=((signal of drug untreated wells in the plates irradiated with ionizing radiation−signal of drug treated wells in the plates irradiated with ionizing radiation)/(signal of drug untreated wells in the plates irradiated with ionizing radiation−signal of drug untreated wells in the plates not being irradiated with ionizing radiation))×100

T1 sequence (Q13315 whole entry): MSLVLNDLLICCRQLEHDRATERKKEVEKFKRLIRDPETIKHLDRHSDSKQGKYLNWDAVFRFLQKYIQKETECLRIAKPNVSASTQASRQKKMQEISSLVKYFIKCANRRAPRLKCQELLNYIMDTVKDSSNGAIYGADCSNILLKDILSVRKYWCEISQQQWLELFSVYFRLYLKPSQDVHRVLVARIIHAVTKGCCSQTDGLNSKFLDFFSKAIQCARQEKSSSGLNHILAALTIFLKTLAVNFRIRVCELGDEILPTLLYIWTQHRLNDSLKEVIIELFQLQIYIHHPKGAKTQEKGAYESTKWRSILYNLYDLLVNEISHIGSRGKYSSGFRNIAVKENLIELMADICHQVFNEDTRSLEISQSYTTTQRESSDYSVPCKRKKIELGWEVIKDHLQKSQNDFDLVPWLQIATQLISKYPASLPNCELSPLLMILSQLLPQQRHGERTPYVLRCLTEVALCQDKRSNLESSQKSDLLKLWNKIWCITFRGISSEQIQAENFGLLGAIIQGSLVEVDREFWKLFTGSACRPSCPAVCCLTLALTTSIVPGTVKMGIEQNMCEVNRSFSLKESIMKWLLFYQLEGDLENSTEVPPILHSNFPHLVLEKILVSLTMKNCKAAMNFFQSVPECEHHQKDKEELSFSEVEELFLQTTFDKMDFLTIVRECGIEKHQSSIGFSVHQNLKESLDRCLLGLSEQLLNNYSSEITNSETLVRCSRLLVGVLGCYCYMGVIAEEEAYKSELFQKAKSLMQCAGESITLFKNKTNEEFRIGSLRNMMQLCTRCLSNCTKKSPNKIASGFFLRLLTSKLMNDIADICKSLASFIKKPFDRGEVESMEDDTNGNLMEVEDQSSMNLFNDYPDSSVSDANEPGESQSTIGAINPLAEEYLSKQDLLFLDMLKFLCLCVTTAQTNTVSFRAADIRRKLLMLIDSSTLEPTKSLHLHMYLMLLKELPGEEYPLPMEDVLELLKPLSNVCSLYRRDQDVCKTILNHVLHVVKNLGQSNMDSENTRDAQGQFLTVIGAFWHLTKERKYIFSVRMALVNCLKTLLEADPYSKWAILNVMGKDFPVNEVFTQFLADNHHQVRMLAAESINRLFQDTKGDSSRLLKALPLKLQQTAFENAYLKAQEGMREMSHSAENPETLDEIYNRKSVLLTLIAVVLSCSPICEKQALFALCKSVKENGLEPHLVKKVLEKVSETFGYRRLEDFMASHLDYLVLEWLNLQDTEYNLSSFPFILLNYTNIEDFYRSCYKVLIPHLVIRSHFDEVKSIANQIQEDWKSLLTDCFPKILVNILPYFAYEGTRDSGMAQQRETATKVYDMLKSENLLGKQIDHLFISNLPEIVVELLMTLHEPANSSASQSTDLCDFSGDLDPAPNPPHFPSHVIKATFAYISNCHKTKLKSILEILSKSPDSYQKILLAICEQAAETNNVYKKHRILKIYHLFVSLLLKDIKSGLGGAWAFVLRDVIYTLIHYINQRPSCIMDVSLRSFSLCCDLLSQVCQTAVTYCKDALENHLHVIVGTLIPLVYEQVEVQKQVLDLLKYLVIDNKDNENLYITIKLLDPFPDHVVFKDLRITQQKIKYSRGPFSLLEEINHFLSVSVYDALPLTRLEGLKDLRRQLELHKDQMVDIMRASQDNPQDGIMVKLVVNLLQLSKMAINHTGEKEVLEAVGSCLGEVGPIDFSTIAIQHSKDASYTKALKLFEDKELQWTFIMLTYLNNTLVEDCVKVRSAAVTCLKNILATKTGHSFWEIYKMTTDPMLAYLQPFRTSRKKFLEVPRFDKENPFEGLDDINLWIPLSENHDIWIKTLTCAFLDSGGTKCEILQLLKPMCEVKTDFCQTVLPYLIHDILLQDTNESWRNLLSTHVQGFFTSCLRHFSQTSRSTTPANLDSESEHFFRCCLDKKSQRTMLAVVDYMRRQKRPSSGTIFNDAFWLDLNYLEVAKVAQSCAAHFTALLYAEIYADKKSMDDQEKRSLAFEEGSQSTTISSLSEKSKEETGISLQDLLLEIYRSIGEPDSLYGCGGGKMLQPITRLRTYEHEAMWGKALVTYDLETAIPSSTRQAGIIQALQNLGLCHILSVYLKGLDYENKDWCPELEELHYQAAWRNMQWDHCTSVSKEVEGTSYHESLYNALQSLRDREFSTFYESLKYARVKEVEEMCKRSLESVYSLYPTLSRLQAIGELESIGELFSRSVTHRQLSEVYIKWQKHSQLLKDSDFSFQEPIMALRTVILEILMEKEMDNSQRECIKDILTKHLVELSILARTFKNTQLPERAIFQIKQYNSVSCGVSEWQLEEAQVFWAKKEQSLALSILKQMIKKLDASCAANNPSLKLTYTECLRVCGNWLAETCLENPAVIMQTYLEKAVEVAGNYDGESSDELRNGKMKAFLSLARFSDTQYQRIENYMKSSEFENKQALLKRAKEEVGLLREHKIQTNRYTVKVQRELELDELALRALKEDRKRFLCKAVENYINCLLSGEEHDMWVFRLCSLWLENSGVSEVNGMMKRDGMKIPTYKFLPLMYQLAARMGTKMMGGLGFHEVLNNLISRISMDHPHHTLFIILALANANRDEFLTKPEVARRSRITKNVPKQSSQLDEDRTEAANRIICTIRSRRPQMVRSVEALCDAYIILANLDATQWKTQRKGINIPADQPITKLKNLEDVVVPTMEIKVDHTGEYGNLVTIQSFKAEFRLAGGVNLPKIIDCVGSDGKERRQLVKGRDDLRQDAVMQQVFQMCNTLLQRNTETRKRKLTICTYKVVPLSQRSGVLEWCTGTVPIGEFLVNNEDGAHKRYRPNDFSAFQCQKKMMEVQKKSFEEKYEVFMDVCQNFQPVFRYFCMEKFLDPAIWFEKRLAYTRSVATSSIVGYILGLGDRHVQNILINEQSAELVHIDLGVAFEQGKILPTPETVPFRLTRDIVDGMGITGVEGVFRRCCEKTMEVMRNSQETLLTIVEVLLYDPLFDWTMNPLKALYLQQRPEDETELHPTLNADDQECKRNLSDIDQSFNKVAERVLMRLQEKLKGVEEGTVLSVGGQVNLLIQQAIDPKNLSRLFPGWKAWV

First: CC1CC(Nc2ccc3c(c2)Cc2cccc(-c4cc(N5CCOCC5)cc(=O)[nH]4)c2O3)CCN1C(=O)OC(C)(C)C (stereo not shown) [Example 2-14-84, tert-Butyl 2-methyl-4-((5-(4-morpholino-6-oxo-1,6-dihydropyridin-2-yl)-9H-xanthen-2-yl)amino) piperidine-1-carboxylate]
Second: O=c1cc(N2CCOCC2)cc(-c2cccc3c2Oc2ccc(NC4CCN(Cc5cccc(C6CC6)n5)CC4)cc2C3)[nH]1 [Example 2-28-31, 6-(7-((1-((6-Cyclopropylpyridin-2-yl)methyl)piperidin-4-yl)amino)-9H-xanthen-4-yl)-4-morpholino pyridin-2(1H)-one]
The IC50 of the first is higher: 500 to 2000 nM for the first, 100 to 500 nM for the second.

COc1cncc(C(C)Nc2ccc3c(c2)Sc2cccc(-c4cc(N5CCOCC5)cc(=O)[nH]4)c2O3)c1 (stereo not shown) [Example 4-4-1, 6-(8-((1-(5-Methoxypyridin-3-yl)ethyl)amino)phenoxathiin-4-yl)-4-morpholinopyridin-2(1H)-one] and Cn1cc(-c2cncc(CNc3ccc4c(c3)Sc3cccc(-c5cc(N6CCOCC6)cc(=O)[nH]5)c3O4)c2)cn1 [Example 4-4-11, 6-(8-(((5-(1-Methyl-1H-pyrazol-4-yl)pyridin-3-yl)methyl)amino)phenoxathiin-4-yl)-4-morpholino pyridin-2 (1H)-one] fall in the same range of IC50: 100 to 500 nM for the first, 100 to 500 nM for the second.

CC(CN1CCN(Cc2cccnc2)CC1)Nc1ccc2c(c1)Sc1cccc(-c3cc(N4CCOCC4)cc(=O)[nH]3)c1S2 (stereo not shown) [Example 1-15-3, 4-Morpholino-6-(7-((1-(4-(pyridin-3-ylmethyl)piperazin-1-yl)propan-2-yl)amino)thianthren-1-yl)pyridin-2(1H)-one] and CCN1CCN(CC(C)Nc2ccc3c(c2)Sc2cccc(-c4cc(N5CCOCC5)cc(=O)[nH]4)c2S3)CC1 (stereo not shown) [Example 1-13-13, 6-(7-((1-(4-Ethylpiperazin-1-yl)propan-2-yl)amino)thianthren-1-yl)-4-morpholino pyridin-2(1H)-one] fall in the same range of IC50: 100 to 500 nM for the first, 100 to 500 nM for the second.

First: CC(Nc1ccc2c(c1)Sc1cccc(-c3cc(N4CCOCC4)cc(=O)[nH]3)c1S2)[C@H](C)N1CCOCC1 (stereo partly shown) [Example 1-21-5, 6-(7-(((3 S)-3-morpholinobutan-2-yl)amino)thianthren-1-yl)-4-morpholinopyridin-2(1H)-one]
Second: CNCC(Nc1ccc2c(c1)Sc1cccc(-c3cc(N4CCOCC4)cc(=O)[nH]3)c1S2)c1nccc(C)n1 (stereo not shown) [Example 1-16-5, 6-(7-((2-(Methylamino)-1-(4-methylpyrimidin-2-yl)ethyl)amino)thianthren-1-yl)-4-morpholinopyridin-2(1H)-one]
The IC50 of the first is lower: 100 to 500 nM for the first, 500 to 2000 nM for the second.

Cc1cncc(CNc2ccc3c(c2)Cc2cccc(-c4cc(N5CCOCC5)cc(=O)[nH]4)c2O3)c1 [Example 2-2-9, 6-(7-(((5-Methylpyridin-3-yl)methyl)amino)-9H-xanthen-4-yl)-4-morpholino pyridin-2(1H)-one] and O=c1cc(N2CCOCC2)cc(-c2cccc3c2Oc2ccc(NCc4cccc(Cl)n4)cc2C3)[nH]1 [Example 2-14-2, 6-(7-(((6-Chloropyridin-2-yl)methyl)amino)-9H-xanthen-4-yl)-4-morpholino pyridin-2(1H)-one] fall in the same range of IC50: 100 to 500 nM for the first, 100 to 500 nM for the second.

Compared with O=c1cc(N2CCOCC2)cc(-c2cccc3c2Sc2ccc(NCc4cncc(-n5ccnc5)c4)cc2S3)[nH]1 [Example 1-12-20, 6-(7-(((5-(1H-Imidazol-1-yl)pyridin-3-yl)methyl)amino)thianthren-1-yl)-4-morpholino pyridin-2(1H)-one], CN1CCN(c2cccc(CNc3ccc4c(c3)Sc3cccc(-c5cc(N6CCOCC6)cc(=O)[nH]5)c3S4)n2)CC1 [Example 1-12-33, 6-(7-(((6-(4-Methylpiperazin-1-yl)pyridin-2-yl)methyl)amino)thianthren-1-yl)-4-morpholino pyridin-2 (1H)-one] is higher in IC50: under 100 nM for the first, 100 to 500 nM for the second.

For O=C(OCc1ccccc1)N1C[C@@H](N2CCOCC2)[C@H](Nc2ccc3c(c2)Sc2cccc(-c4cc(N5CCOCC5)cc(=O)[nH]4)c2S3)C1 (racemic) [Example 11-1, Benzyl 3-morpholino-4-((6-(4-morpholino-6-oxo-1,6-dihydropyridin-2-yl)thianthren-2-yl)amino)pyrrolidine-1-carboxylate], the IC50 was 100 to 500 nM.
